Where a SMILES comes first, the peptide text is derived from it. Bridges are numbered along the chain shown (N, C = ends).
System: Kv1.2
Experiment: microelectrode voltage-clamp, Xenopus laevis oocytes, Kv1.2
Format: cell-based
Conditions: 10 μM, 300-ms depolarization to +20 mV from -90 mV, pH 7.5, 19-23°C, n = 3
Procedure: Briefly, plasmids were linearized, and transcription was carried out according to the standardized protocol. Afterwards, the capped cRNAs that encoded the related ion channels were prepared. To conduct transcription in vitro, firstly, NotL was utilized to linearize plasmids pCI that contained both Kv1.1 (Accession: NM_010595.3) and Kv2.1 (Accession: AF026005.1), whereas SphI was adopted to linearize plasmid PcDNA3 containing Kv1.2 (Accession: NM_012970.3) gene. […] Thereafter, the linearized plasmids were used as the templates to synthesize cRNAs in vitro using the large-scale T7 mMESSAGE mMACHINE transcription kit (Ambion, USA).
A mature female X. laevis was placed on the ice for anesthesia, and then the Xenopus laevis oocytes at stage IV-VI were extracted. Subsequently, those extracted oocytes were treated by collagenase (1 mg/mL) contained within the calcium-depleted ND96 solution (containing 96 mM NaCl, 10 mM HEPES, 1 mM MgCl2, and 2 mM KCl) for defolliculation. […]
Firstly, the effects of JZTX-X on the isoforms of potassium channels (including Kv1.1-1.3, Kv2.1, as well as Kv4.2-4.3) contained within the X. laevis oocytes were investigated through the microelectrode voltage-clamp approach. […] We also determined the effects of JZTX-X on Ito potassium channels in rat DRG neurons; those current amplitudes were inhibited by 54.4±6.8% when 500 nM JZTX-X was applied (Fig. 3K, n = 5).

For `CC(C)C[C@@H]1NC(=O)[C@H](CCCCN)NC(=O)[C@H](Cc2ccc(O)cc2)NC(=O)[C@@H]2CSSC[C@@H]3NC(=O)[C@H](Cc4ccc(O)cc4)NC(=O)[C@H](Cc4ccccc4)NC(=O)CNC(=O)[C@H](C)NC(=O)[C@H](CSSC[C@H](NC(=O)[C@@H](N)CC(C)C)C(=O)N[C@@H](CO)C(=O)N[C@@H](CCCNC(=N)N)C(=O)N[C@@H](CCC(=O)O)C(=O)NCC(=O)N[C@@H](CCC(=O)O)C(=O)N[C@@H](Cc4ccccc4)C(=O)N2)NC(=O)[C@H](CSSC[C@@H](C(=O)N[C@@H](Cc2ccc(O)cc2)C(=O)N[C@@H](CCCNC(=N)N)C(=O)N[C@@H](CC(N)=O)C(=O)O)NC(=O)[C@H](Cc2c[nH]cn2)NC(=O)[C@H](CC(C)C)NC(=O)[C@H](C(C)C)NC(=O)[C@H](Cc2ccccc2)NC(=O)[C@H](C)NC(=O)[C@H](CCCCN)NC3=O)NC(=O)[C@H](CCCCN)NC(=O)[C@H](CCCNC(=N)N)NC1=O` [JZTX-X, Jingzhaotoxin-X] (H-LCSREGEFCYKLRKCCAGFYCKAFVLHCYRN-OH; disulfide 2-16, 9-21, 15-28; N-terminus assumed), the “inhibition of Kv1.2 current” value was “less than 5%”.

Reference: PMC7269146, “Jingzhaotoxin-X, a gating modifier of Kv4.2 and Kv4.3 potassium channels purified from the venom of the Chinese tarantula Chilobrachys jingzhao” (The Journal of Venomous Animals and Toxins Including …, 2020)
